Results as given in patent US20250235418A1, “Butyrate Analogues and Methods of Use for HIF Stabilization and Treatment of Bowel Disease” (THE REGENTS OF THE UNIVERSITY OF COLORADO, A BODY CORPORATE, priority 2022, published 2025).

Assays:
[1] = tested on: HIF1α in T84 cells; assay: HIF1α immunoblot in T84 cells (MBA vs BA); format: cell-based; conditions: T84 cells
Description: (A) Structures of butyrate derivatives investigated in initial screen for HIF stabilization. Immunoblot of HIF1a protein levels in Caco-2 cells (B) and T84 cells (C) exposed to veh (HBSS+), […], or 5 mM butyrate derivatives for 6h. (D) Dose response study of HIF1a accumulation in T84 cells treated with decreasing concentrations of MBA and BA for 6 h.
(A) Immunoblots of HIF1a protein over time after exposure of T84 cells to 5 mM BA and MBA. (B) Mesoscale assay of HIF1a protein over time in caco-2 cells treated with 5 mM MBA compared to veh. (C) HIF1a and HIF target (BNIP3) protein in caco-2 cells exposed to veh (HBSS+), […] or 5 mM MBA. Data are presented as mean+S.E.M, *p<0.05, **p<0.01, ***p<0.001.
Endogenous and non-endogenous butyrate derivatives with specifically chosen functional groups at different positions within the small molecule and assess their effects on HIF stabilization (FIG. 21A). To study a small library of butyrate derivatives we employed an electrochemiluminescence based assay to quantify HIF1α levels using the Meso Scale Discovery (HIF1α MSD assay, http://www.mesoscale.com) technology. Similar to the sandwich enzyme-linked immunosorbent assay (ELISA), this technology captures and detects HIF1α protein using two specific antibodies but utilizes electrochemiluminescence-based signal generation and detection. Using lysates from intestinal epithelial cells (IECs) caco-2 and T84 exposed to a physiological relevant concentration of 5 mM butyrate derivatives for 4h, this assay was employed to determine HIF1α protein concentration. A bona-fide and potent PHD2 inhibitor (IOX4) was used to stabilize HIF1α as a positive control. Various butyrate derivatives increased HIF1α relative concentration in both cell lines compared to low signals detected in untreated lysates. […] We decided to focus on this interesting butyrate derivative for further studies.
To elucidate the effectiveness of MBA to stabilize HIF1α over time and possibly shine light on how quickly it can be metabolized in-vitro, time-course studies where performed between BA and MBA, IOX4 was used as a positive control. […] Employing the HIF1α MSD assay, we screened for various timepoints in caco-2 cell lysates exposed to MBA (5 mM). […] BNIP3 is involved in cell survival and is a known HIF1α target that is induced through chemical stabilization of HIF or hypoxia. BNIP3 promoter comprises a functional hypoxia response element (HRE) and can be activated by HIF1α.[5] Parallel to our HIF stabilization time course studies, we wanted to assess the transcriptional activity of the stabilized protein over time.

[2] = tested on: HIF-1α in T84 cells; assay: HIF stabilization by butyrate in T84 cells (HIF-1α target mRNA, HIF-1α protein); format: cell-based; conditions: 4 h
Description: (C) Quantified densitometry of HIF-1α protein expression in T84 cells treated with 10 mM butyrate with or without 1 mM MCPA for 4 h

[3] = biological target: T1, PHD2181-402 (Homo sapiens, UniProt Q9GZT9); assay: microscale thermophoresis (MST) binding to PHD2181-402
T1 construct: made in house
Text: Measurements were repeated 3 times.
Uncompetitive inhibitors only bind to the enzyme substrate complex, whereas noncompetitive inhibitors can bind to enzyme alone or enzyme substrate complex since the inhibitor has a unique binding site distinct from the substrate binding site. […] Thus, our findings indicate that butyrate functions as a noncompetitive PHD inhibitor with a unique binding site.

[4] = tested on: HIF-1α / PHDs in murine colon tissue; assay: rectal gavage of butyrate or IOX2 in antibiotic SCFA-depleted mice; format: in vivo; conditions: 1 h, 100 mM butyrate, 1.5 mM IOX2

T1 sequence (Q9GZT9 181-402): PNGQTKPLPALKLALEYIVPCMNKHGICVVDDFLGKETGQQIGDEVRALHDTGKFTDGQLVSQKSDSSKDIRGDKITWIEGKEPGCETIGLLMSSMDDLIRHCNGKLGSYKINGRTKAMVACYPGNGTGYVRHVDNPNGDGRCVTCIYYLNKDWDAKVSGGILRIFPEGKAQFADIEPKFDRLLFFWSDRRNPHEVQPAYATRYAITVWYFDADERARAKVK

Structure (SMILES): CCCC(=O)O [Butyrate, Butyric acid]
- HIF1α stabilization over time (immunoblot) ([1]; 5 mM BA and MBA, IOX4 positive control): no longer stabilized at 48h
- dose response of HIF1α accumulation ([1]; decreasing concentrations, 6 h): quickly becomes ineffective
- HIF stabilization in the presence of MCPA ([2]; 10 mM butyrate with 1 mM MCPA): still stabilized HIF
- HIF-1α protein levels ([2]; 10 mM): increased
- HIF-1α target genes BNIP3, BNIP3L, GLUT1 mRNA ([2]; 10 mM): induction of HIF-1α target genes
- Kd ([3]; 25 nM PHD2181-402, without 2-OG, read-out: dissociation constant (KD)): 2000 ± 3000 µM
- binding to PHD2181-402 in the presence of 2-OG by MST ([3]; with 500 nM 2-OG): no butyrate binding
- colon tissue 2-OG levels after antibiotics [4]: rescued
- mRNA expression of HIF-1α targets Bnip3, Bnip3l, Glu1 after antibiotics [4]: rescued
